In article PMC4445002, “Efficient inhibition of tumor angiogenesis and growth by a synthetic peptide blocking S100A4-methionine aminopeptidase 2 interaction” (Molecular Therapy. Methods & Clinical Development, 2015):

Tests used:
[1] = tested on: PC-3M-Luc tumors; test: Tumor growth by bioluminescence imaging of PC-3M-Luc xenografts; type: in vivo, human tumor in athymic nude mice
Method: Figure 5 Inhibition of tumor angiogenesis and tumor growth of human prostate cancer cells by the NBD peptide. The peptide/atelocollagen was injected into the subcutaneous tumors on day 3 after inoculation of PC-3M-Luc cells. Atelocollagen alone was injected as controls. (a) Microvessel density. Anti-CD31-antibody staining was used to detect angiogenesis. Arrows show microvessels. The images were digitally processed for assessment of angiogenesis. (b) Inhibition of tumor growth by peptide delivery in vivo. Representative bioluminescent images of nude are shown. L, tumors treated with the CBD peptide; R, tumors treated with the NBD peptide. (c) The photon count of the bioluminescence is shown. […]
Animal experiments were performed in compliance with the guidelines of the Institute for Laboratory Animal Research at the National Cancer Center Research Institute. […] Ten minutes later, photons from animal whole bodies were counted using the IVIS imaging system (Caliper Life Sciences) according to the manufacturer’s instructions. Data were analyzed by living image 2.50 software (Caliper Life Sciences).
The peptide/atelocollagen complex was prepared by mixing equal volumes of atelocollagen (0.1% in PBS at pH 7.4) and peptide solution (1 mg/ml) with rotation for 30 minutes at 4 °C. […] Mice were monitored by bioluminescent imaging 14 days after the injection of the peptide/atelocollagen complex. […]

[2] = tested on: S100A4-MetAP2 interaction; test: In vitro GST pull-down binding assay S100A4-MetAP2; conditions: [35S]MetAP2, GST/S100A4, 1 mmol/l CaCl2; peptide at 25-fold molar excess of MetAP2
[3] = tested on: angiogenesis-related genes in MSS31 cells; test: Expression of angiogenesis-related genes by qRT-PCR; type: cell-based, mouse; conditions: atelocollagen complex, retn, fgf18, aqp1, map3k5, thy1, foxo6, hs6st1, cdkn1a, thbs1, spry4
Method: Therefore, an alternative action mechanism of the NBD peptide would be the modulation of the expression of these angiogenesis-related genes.
Caspase3/7 assays was performed with Apo-ONE Caspase-3/7 Assay
Reagent (Promega). No significant changes are observed.
F i g . […]
PC-3M-Luc cells were treated with atelocollagen alone or the NBD peptide/atelocollagen complex in vitro, and their growth rate was monitored.
The values represent cell growth rate relative to that of control cells that is […]
MSS31 cells were incubated with the peptide/atelocollagen complexes.
Isolation of total RNA and subsequent qRT-PCR analysis were carried out as described previously (30). The GAPDH gene was used as an internal control.
(a) Proangiogenic genes in NBD and CBD peptides-treated cells. (b)
Antiangiogenic genes in NBD and CBD peptides-treated cells.

[4] = tested on: NMIIA (Ser1943) in MSS31 cells; test: NMIIA Ser1943 phosphorylation by western blot; type: cell-based, mouse; conditions: 5 μg/well, 18 hours
Method: Figure 6 Stimulation of NMIIA phosphorylation and filament assembly by the NBD peptide. MSS31 cells incubated with atelocollagen alone or the peptide/atelocollagen complexes were subjected to western blot analysis and immunofluorescent staining. (a) Western blot analysis of NMIIA phosphorylation. Total cellular proteins were subjected to immunoblot analysis. The band intensity of p-NMIIA relative to that of total NMIIA was measured using ImageJ software and normalized to control cells. (b) NMIIA assembly. MSS31 cells were simultaneously incubated with rabbit polyclonal anti-S100A4 antibody and mouse monoclonal anti-NMIIA antibody followed by Alexa Fluor 488-conjugated goat antirabbit IgG and Alexa Fluor 594-conjugated goat antimouse IgG. Nuclei were stained with DAPI. Scale bars: 50 μm. (c) Blockade of S100A4-NMIIA interaction by the NBD peptide. MSS31 cells were immunostained as in a. White arrows and yellow arrows indicate colocalized areas and independently localized areas of S100A4 and NMIIA, respectively. Bars: 20 μm. TEXT PRINTED IN THE PICTURE: (a) NBD: p-NMIIA/total NMIIA: 1.78 | (a) CBD: p-NMIIA/total NMIIA: 0.66 […]

“NBD: N-terminal 39 amino acid sequence of SBD, from Arg170 to Ileu208; corresponding to MetAP2 (170–208) (REAAEAHRQVRKYVMSWIKPGMTMIEICEKLEDCSRKLI)” was tested, and the “vascularity and tumor regression” value ([1]; single intra-tumor administration, human prostate cancer xenografts (abstract)) was “significantly reduced vascularity, resulting in tumor regression”, the tumor growth ([1]; single intratumoral injection of 100 μg peptide in atelocollagen, bioluminescence on day 14, vs atelocollagen alone and CBD, n = 7, P < 0.05) was “significant inhibition of the growth of tumors” and the “inhibition of S100A4-MetAP2 interaction (GST pull-down)” value [2] was “inhibited the binding as efficiently as SBD”. For the same substance, the “expression of angiogenesis-related genes” value [3] was “could not detect any alteration of the expression of these genes”, the “Ser1943 phosphorylation of NMIIA” value ([4]; atelocollagen complex) was “enhanced Ser1943 phosphorylation of NMIIA” and the “p-NMIIA/total NMIIA” value ([4]; band intensity, normalized to control cells (atelocollagen alone)) was 1.78.
